# Test results as given in PubChem BioAssay (NCI).
#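 Interpolation was linear, between the two tested concentrations surrounding the appropriate level; five concentrations were tested over 48 hours in 96-well plates. The concentration for full growth arrest is given as TGI.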
# Columns and labels:
# Assay in all cases: NCI tumour cell line growth inhibition, 48 h
# COLO 205 colon = tested on: COLO 205 colon
# SF-295 CNS = tested on: SF-295 CNS
# TK-10 renal = tested on: TK-10 renal
# UACC-257 melanoma = tested on: UACC-257 melanoma
# HT29 colon = tested on: HT29 colon
# CCRF-CEM leukemia = tested on: CCRF-CEM leukemia
# RPMI-8226 leukemia = tested on: RPMI-8226 leukemia
# IGROV1 ovarian = tested on: IGROV1 ovarian
# SNB-19 CNS = tested on: SNB-19 CNS
# HOP-62 NSCLC = tested on: HOP-62 NSCLC
# HOP-92 NSCLC = tested on: HOP-92 NSCLC
# M19-MEL melanoma = tested on: M19-MEL melanoma
# KM20L2 colon = tested on: KM20L2 colon
# UACC-62 melanoma = tested on: UACC-62 melanoma
# DLD-1 colon = tested on: DLD-1 colon
# KM12 colon = tested on: KM12 colon
# MALME-3M melanoma = tested on: MALME-3M melanoma
# ACHN renal = tested on: ACHN renal
# HCT-116 colon = tested on: HCT-116 colon
# SK-MEL-28 melanoma = tested on: SK-MEL-28 melanoma
# NCI-H460 lung = tested on: NCI-H460 lung
# M14 melanoma = tested on: M14 melanoma
# A549 NSCLC = tested on: A549 NSCLC
# CAKI-1 renal = tested on: CAKI-1 renal
# OVCAR-5 ovarian = tested on: OVCAR-5 ovarian
# MOLT-4 leukemia = tested on: MOLT-4 leukemia
# EKVX NSCLC = tested on: EKVX NSCLC
# SK-MEL-2 melanoma = tested on: SK-MEL-2 melanoma
# OVCAR-8 ovarian = tested on: OVCAR-8 ovarian
# SF-539 CNS = tested on: SF-539 CNS
# SK-MEL-5 melanoma = tested on: SK-MEL-5 melanoma
# SK-OV-3 ovarian = tested on: SK-OV-3 ovarian
# K-562 leukemia = tested on: K-562 leukemia
# SF-268 CNS = tested on: SF-268 CNS
# RXF 393 renal = tested on: RXF 393 renal
# UO-31 renal = tested on: UO-31 renal
# HL-60(TB) leukemia = tested on: HL-60(TB) leukemia
# RXF-631 renal = tested on: RXF-631 renal
# A498 renal = tested on: A498 renal
# OVCAR-3 ovarian = tested on: OVCAR-3 ovarian
# NCI-H23 lung = tested on: NCI-H23 lung
# OVCAR-4 ovarian = tested on: OVCAR-4 ovarian
# SW-620 colon = tested on: SW-620 colon
# SR leukemia = tested on: SR leukemia
# DMS 114 small cell lung = tested on: DMS 114 small cell lung
# HCC-2998 colon = tested on: HCC-2998 colon
# SN12C renal = tested on: SN12C renal
# NCI-H522 lung = tested on: NCI-H522 lung
# 786-0 renal = tested on: 786-0 renal
# NCI-H226 lung = tested on: NCI-H226 lung
# HCT-15 colon = tested on: HCT-15 colon
# SNB-75 CNS = tested on: SNB-75 CNS
# DMS 273 small cell lung = tested on: DMS 273 small cell lung
# XF 498 CNS = tested on: XF 498 CNS
# U251 CNS = tested on: U251 CNS
# LXFL 529 NSCLC = tested on: LXFL 529 NSCLC
smiles,measurement,setting,value
CC(C)c1cccc(C(C)C)c1NC(=O)/C(Cc1nc2ccc(Cl)cc2[nH]c1=O)=N\NC(=O)C[N+](C)(C)C,TGI,COLO 205 colon,> 100 µM
same,TGI,SF-295 CNS,> 100 µM
same,TGI,TK-10 renal,> 100 µM
same,TGI,UACC-257 melanoma,> 100 µM
same,TGI,HT29 colon,> 100 µM
same,TGI,CCRF-CEM leukemia,> 100 µM
same,TGI,RPMI-8226 leukemia,> 100 µM
same,TGI,IGROV1 ovarian,> 100 µM
same,TGI,SNB-19 CNS,> 100 µM
same,TGI,HOP-62 NSCLC,> 100 µM
same,TGI,HOP-92 NSCLC,> 100 µM
same,TGI,M19-MEL melanoma,> 100 µM
same,TGI,KM20L2 colon,> 100 µM
same,TGI,UACC-62 melanoma,> 100 µM
same,TGI,DLD-1 colon,> 100 µM
same,TGI,KM12 colon,> 100 µM
same,TGI,MALME-3M melanoma,> 100 µM
same,TGI,ACHN renal,> 100 µM
same,TGI,HCT-116 colon,> 100 µM
same,TGI,SK-MEL-28 melanoma,> 100 µM
same,TGI,NCI-H460 lung,> 100 µM
same,TGI,M14 melanoma,> 100 µM
same,TGI,A549 NSCLC,> 100 µM
same,TGI,CAKI-1 renal,> 100 µM
same,TGI,OVCAR-5 ovarian,> 100 µM
same,TGI,MOLT-4 leukemia,> 100 µM
same,TGI,EKVX NSCLC,> 100 µM
same,TGI,SK-MEL-2 melanoma,> 100 µM
same,TGI,OVCAR-8 ovarian,> 100 µM
same,TGI,SF-539 CNS,> 100 µM
same,TGI,SK-MEL-5 melanoma,> 100 µM
same,TGI,SK-OV-3 ovarian,> 100 µM
same,TGI,K-562 leukemia,> 100 µM
same,TGI,SF-268 CNS,> 100 µM
same,TGI,RXF 393 renal,> 100 µM
same,TGI,UO-31 renal,> 100 µM
same,TGI,HL-60(TB) leukemia,> 100 µM
same,TGI,RXF-631 renal,> 100 µM
same,TGI,A498 renal,> 100 µM
same,TGI,OVCAR-3 ovarian,> 100 µM
same,TGI,NCI-H23 lung,> 100 µM
same,TGI,OVCAR-4 ovarian,> 100 µM
same,TGI,SW-620 colon,> 100 µM
same,TGI,SR leukemia,> 100 µM
same,TGI,DMS 114 small cell lung,> 100 µM
same,TGI,HCC-2998 colon,> 100 µM
same,TGI,SN12C renal,> 100 µM
same,TGI,NCI-H522 lung,> 100 µM
same,TGI,786-0 renal,> 100 µM
O=C1C2=C(c3ccccc31)C(c1ccc([N+](=O)[O-])cc1)NC(=S)N2 (stereo unspecified),TGI,COLO 205 colon,> 100 µM
same,TGI,SF-295 CNS,> 100 µM
same,TGI,TK-10 renal,> 100 µM
same,TGI,UACC-257 melanoma,> 100 µM
same,TGI,HT29 colon,> 100 µM
same,TGI,CCRF-CEM leukemia,> 100 µM
same,TGI,RPMI-8226 leukemia,> 100 µM
same,TGI,NCI-H226 lung,> 100 µM
same,TGI,IGROV1 ovarian,> 100 µM
same,TGI,SNB-19 CNS,> 100 µM
same,TGI,HOP-62 NSCLC,> 100 µM
same,TGI,HCT-15 colon,> 100 µM
same,TGI,HOP-92 NSCLC,> 100 µM
same,TGI,M19-MEL melanoma,> 100 µM
same,TGI,SNB-75 CNS,98.6 µM
same,TGI,KM20L2 colon,> 100 µM
same,TGI,UACC-62 melanoma,> 100 µM
same,TGI,DMS 273 small cell lung,> 100 µM
same,TGI,DLD-1 colon,> 100 µM
same,TGI,KM12 colon,> 100 µM
same,TGI,MALME-3M melanoma,> 100 µM
same,TGI,ACHN renal,> 100 µM
same,TGI,HCT-116 colon,> 100 µM
same,TGI,SK-MEL-28 melanoma,> 100 µM
same,TGI,NCI-H460 lung,> 100 µM
same,TGI,M14 melanoma,> 100 µM
same,TGI,A549 NSCLC,> 100 µM
same,TGI,CAKI-1 renal,> 100 µM
same,TGI,OVCAR-5 ovarian,> 100 µM
same,TGI,XF 498 CNS,> 100 µM
same,TGI,MOLT-4 leukemia,> 100 µM
same,TGI,EKVX NSCLC,> 100 µM
same,TGI,SK-MEL-2 melanoma,> 100 µM
same,TGI,SF-539 CNS,> 100 µM
same,TGI,SK-MEL-5 melanoma,> 100 µM
same,TGI,SK-OV-3 ovarian,> 100 µM
same,TGI,K-562 leukemia,> 100 µM
same,TGI,SF-268 CNS,> 100 µM
same,TGI,UO-31 renal,> 100 µM
same,TGI,HL-60(TB) leukemia,> 100 µM
same,TGI,RXF-631 renal,> 100 µM
same,TGI,A498 renal,> 100 µM
same,TGI,OVCAR-3 ovarian,> 100 µM
same,TGI,NCI-H23 lung,> 100 µM
same,TGI,OVCAR-4 ovarian,> 100 µM
same,TGI,SW-620 colon,> 100 µM
same,TGI,U251 CNS,> 100 µM
same,TGI,DMS 114 small cell lung,> 100 µM
same,TGI,LXFL 529 NSCLC,> 100 µM
same,TGI,SN12C renal,> 100 µM
same,TGI,NCI-H522 lung,> 100 µM
same,TGI,786-0 renal,> 100 µM
